Usually IC50 stands for the point on the concentration scale where inhibition reaches its midpoint.

This experiment has as its system PMA-differentiated THP-1 cells. Description: IL-1β production in PMA-differentiated THP-1 cells stimulated with gramicidin (hTHP-1 assay containing 2% fetal bovine serum; Procedures 1 and 2). Format: cell-based, human. The note with it: 2% fetal bovine serum. Summed up: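 PMA 20 ng/ml 16-18 h → trypsinise → 50,000 cells/well, RPMI/2% FBS; cpd 1 h (11-pt, 100–0.0017 μM; DMSO 0.37%); gramicidin 5 μM, 2 h; spin; supernatant IL-1β via HTRF.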

Setting [1] is: Homo sapiens, THP-1, Table B1, class symbols, read-out: Average IC50 of compounds in hTHP-1 assay: hTHP-1 IC50.
[2] abbreviates: Table B1, class symbols, read-out: Average IC50 of compounds in hTHP-1 assay: hTHP-1 IC50.
Setting [3] is: Homo sapiens, THP-1, Table B2, class symbols, read-out: hTHP-1 IC50.
Where [4] appears, read: Table B2, class symbols, read-out: hTHP-1 IC50.
[5] abbreviates: Homo sapiens, THP-1, Table B2, numeric bounds, read-out: hTHP-1 IC50.

Read-outs that look alike come from different tables or passages of the source.

`CC(C)n1nc(S(N)(=O)=NC(=O)Nc2c3c(nc4c2CCC42CC2)CCC3)cc1CO` (single isomer, unassigned) [Example 642, (S) or (R)-5-(hydroxymethyl)-1-isopropyl-N′-((1′,5′,6′,7′-tetrahydro-2′H-spiro[cyclopropane-1,3′-dicyclopenta[b,e]pyridin]-8′-yl)carbamoyl)-1H-pyrazole-3-sulfonimidamide]: where the note is “Homo sapiens, THP-1, Table B3, hTHP-1 assay, numeric values, read-out: IC50”, the concentration for half-maximal inhibition (IC50) is above 30000 nM.
Regarding `CC(C)c1csc(S(N)(=O)=NC(=O)Nc2c3c(nc4c2CCC4C)C(C)CC3)c1` (centres unmarked) [Compound 123, N′-((3,5-dimethyl-1,2,3,5,6,7-hexahydrodicyclopenta[b,e]pyridin-8-yl)carbamoyl)-4-isopropylthiophene-2-sulfonimidamide], the IC50 under setting [1] lay within 1000 to 5000 nM.
Consider `CC1CCc2c1nc1c(c2NC(=O)N=S(N)(=O)c2sc(C(C)(C)O)nc2CO)CCC1` (single isomer, unassigned) [Compound 168b, (R,R/S) or (S,R/S)-4-(hydroxymethyl)-2-(2-hydroxypropan-2-yl)-N′-((3-methyl-1,2,3,5,6,7-hexa-hydrodicyclopenta[b,e]py-ridin-8-yl)carbamoyl)thia-zole-5-sulfonimidamide], for which the half-maximal inhibitory concentration (IC50) under setting [2] was 200 to 1000 nM.
Regarding `Cc1c(C2CC2)nc2c(c1NC(=O)N=S(N)(=O)c1cc(C(C)(C)O)cs1)CCC2` (centres unmarked) [Compound 175, N′-((2-cyclopropyl-3-methyl-6,7-dihydro-5H-cyclopenta[b]pyridin-4-yl)carbamoyl)-4-(2-hydroxypropan-2-yl)thiophene-2-sulfonimidamide], the IC50 under setting [1] was in the range of 200 to 1000 nM.
Take `C[C@@H]1CCc2c1nc1c(c2NC(=O)N=S(N)(=O)c2ncc(C(C)(C)O)s2)CCC1` (stereo partly drawn) [Compound 140c, 5-(2-Hydroxypropan-2-yl)-N′-(((R)-3-methyl-1,2,3,5,6,7-hexahydrodicyclopenta[b,e]pyridin-8-yl)carbamoyl)thiazole-2-sulfonimidamide]: under setting [3], the IC50 is 200 to 1000 nM.
With `Cc1c(C(F)(F)F)nc2c(c1NC(=O)N=S(N)(=O)c1cnc(C(C)(C)O)s1)CCC2C` (single isomer, unassigned) [Compound 608c], under setting [4], the IC50 fell in the range of 200 to 1000 nM.
Regarding `CCn1ccc(S(N)(=O)=NC(=O)Nc2c(C)c(C(F)(F)F)nc3c2CCC3)n1` (single isomer, unassigned) [Example 692, (S) or (R)-1-Ethyl-N′-((3-methyl-2-(trifluoromethyl)-6,7-dihydro-5H-cyclopenta[b]pyridin-4-yl)carbamoyl)-1H-pyrazole-3-sulfonimidamide], the IC50 (Table B3, hTHP-1 assay, class symbols, read-out: IC50) lay within 5000 to 30000 nM.
As for `CC1(C)CCc2c1nc1c(c2NC(=O)N=S(N)(=O)c2cnc(C(C)(CO)CO)s2)CCC1` (centres unmarked) [Compound 724], the IC50 under setting [3] fell in the range of 200 to 1000 nM.
With `CC(C)(O)c1cc(S(N)(=O)=NC(=O)Nc2c3c(nc4c2CCC4)CCC3)nn1-c1ccccc1` (single isomer, unassigned) [Compound 159b, (S) or (R)-N′-((1,2,3,5,6,7-hexahydrodicyclo-penta[b,e]pyridin-8-yl)carbamoyl)-5-(2-hydroxypropan-2-yl)-1-phenyl-1H-pyrazole-3-sulfonimidamide], the IC50 under setting [2] lay within 5000 to 30000 nM.
Regarding `COC(C)(C)c1nc(CO)c(S(N)(=O)=NC(=O)Nc2c3c(nc4c2CCC4(C)C)CCC3)s1` (single isomer, unassigned) [Compound 648b, (S) or (R)-N′-((3,3-dimethyl-1,2,3,5,6,7-hexahydrodicyclopenta [b,e]pyridin-8-yl)carbamoyl)-4-(hydroxymethyl)-2-(2-methoxypropan-2-yl)thiazole-5-sulfonimidamide], the IC50 under setting [5] is above 30000 nM.
As for `CCc1csc(S(N)(=O)=NC(=O)Nc2c3c(nc4c2CC[C@H]4C)CCC3)c1` (stereo partly drawn) [Compound 721c, 4-Ethyl-N′-(((R)-3-methyl-1,2,3,5,6,7-hexahydrodicyclopenta [b,e]pyridin-8-yl)carbamoyl)thiophene-2-sulfonimidamide], under setting [3], the IC50 was 40 to 200 nM.
Consider `C[C@H]1CCc2c1nc1c(c2NC(=O)N=[S@@](N)(=O)c2cnc(C(C)(C)O)s2)CCC1` [Compound 162ba, (R,S)-2-(2-hydroxypropan-2-yl)-N′-((3-methyl-1,2,3,5,6,7-hexahydrodicyclo-penta[b,e]pyridin-8-yl)carbamoyl)thiazole-5-sulfonimidamide], for which the 50% inhibitory concentration (IC50) under setting [2] lay in the range of 200 to 1000 nM.
For `CCc1c(C(F)(F)F)nc2c(c1NC(=O)N=S(N)(=O)c1nn(CC)cc1F)CCC2` (single isomer, unassigned) [Example 772, (S) or (R)-1-ethyl-N′-((3-ethyl-2-(trifluoromethyl)-6,7-dihydro-5H-cyclopenta[b]pyridin-4-yl)carbamoyl)-4-fluoro-1H-pyrazole-3-sulfonimidamide], the IC50 (Table B4, class symbols, read-out: hTHP-1 IC50) fell in the range of 5000 to 30000 nM.
For the compound `Cc1c(C2CCC2)nc2c(c1NC(=O)N=S(N)(=O)c1cnc(C(C)(C)O)s1)CCC2` (centres unmarked) [Compound 649, N′-((2-cyclobutyl-3-methyl-6,7-dihydo-5H-cyclopenta[b]pyridin-4-yl)carbamoyl)-2-(2-hydroxypropan-2-yl)thiazole-5-sulfonimidamide], under setting [3], the concentration for half-maximal inhibition (IC50) was in the range of 5000 to 30000 nM.
As to `CCn1cc(F)c(S(N)(=O)=NC(=O)Nc2c3c(nc4c2CCC4)CCC3)n1` (centres unmarked) [Example 736, 1-Ethyl-4-fluoro-N′-((1,2,3,5,6,7-hexahydrodicyclopenta[b,e]pyridin-8-yl)carbamoyl)-1H-pyrazole-3-sulfonimidamide], under “Homo sapiens, THP-1, Table B4, class symbols, read-out: hTHP-1 IC50”, the IC50 was in the range of 200 to 1000 nM.
For `CC1CCc2c1nc1c(c2NC(=O)N=S(N)(=O)c2cn(C(C)C)cn2)CCC1` (single isomer, unassigned) [Compound 660b, (S, S) or (R, S) or (S, R) or (R, R)-1-Isopropyl-N′-((3-methyl-1,2,3,5,6,7-hexahydrodicyclopenta [b,e]pyridin-8-yl)carbamoyl)-1H-imidazole-4-sulfonimidamide], the concentration for half-maximal inhibition (IC50) (Table B2, numeric bounds, read-out: hTHP-1 IC50) is above 30000 nM.
As to `Cc1c(C(F)(F)F)nc2c(c1NC(=O)N=S(N)(=O)c1sc(C(C)(C)O)cc1F)CCC2` (single isomer, unassigned) [Compound 632b, (S) or (R)-3-Fluoro-5-(2-hydroxypropan-2-yl)-N′-((3-methyl-2-(trifluoromethyl)-6,7-dihydro-5H-cyclopenta[b]pyridin-4-yl)carbamoyl) thiophene-2-sulfonimidamide], the IC50 under setting [4] lay in the range of 5000 to 30000 nM.
Consider `CC(C)(O)c1sc(S(N)(=O)=NC(=O)Nc2c3c(nc4c2CCC42CC2)CCC3)cc1F` (single isomer, unassigned) [Compound 614a, (R) or (S)-4-Fluoro-5-(2-hydroxypropan-2-yl)-N′-((1′,5′,6′,7′-tetrahydro-2′H-spiro[cyclopropane-1,3′-dicyclopenta[b,e]pyridin]-8′-yl)carbamoyl) thiophene-2-sulfonimidamide], for which, under setting [4], the IC50 was 40 to 200 nM.
For the compound `Cc1c(C2(C)CC2)nc2c(c1NC(=O)N=S(N)(=O)c1cnc(C(C)(O)CO)s1)CCC2` (centres unmarked) [Compound 707], under setting [5], the IC50 is above 30000 nM.
`CC(C)(O)c1sc(S(N)(=O)=NC(=O)Nc2c3c(nc4c2CCC4(C)C)CCC3)nc1CO` (centres unmarked) [Compound 642, N′-((3,3-dimethyl-1,2,3,5,6,7-hexahydrodicyclopenta[b,e]pyridin-8-yl)carbamoyl)-4-(hydroxymethyl)-5-(2-hydroxypropan-2-yl)thiazole-2-sulfonimidamide]: under setting [3], the IC50 fell in the range of 40 to 200 nM.

For the origin of these results see patent US20230031406A1, “COMPOUNDS AND COMPOSITIONS FOR TREATING CONDITIONS ASSOCIATED WITH NLRP ACTIVITY” (Novartis AG, priority 2018, published 2023).
